# US20040132969A1, “Antibodies, peptides, analogs and uses thereof” (priority 2000, published 2004)
# Entries after “also recorded” stand apart in the source; their conditions may differ. Where no end group is shown, it is not given here.
# Experiments:
# [1] = test system: HUVEC and fibroblasts; assay: BrdU ELISA cell proliferation cytotoxicity assay; assay type: cell-based, human; conditions: for cytotoxicity / cell proliferation, BrdU assay: HUVEC and fibroblast monocultures, 24 hours
# Method: (§1) In order to determine whether the fibrin E analogue peptides WTM33, WTM34, WTM35, WTM36, and WTM37 are cytotoxic when applied to the HUVEC and fibroblasts used in the Angiosys™ angiogenesis assay, these reagents were examined in two different cytotoxicity assays. To simplify performance of these assays and discriminate between fibroblasts and HUVEC, cells were grown in monocultures rather than together and then treated with the experimental reagents as described below.
# Cytotoxicity of the fibrin E peptide analogues was also determined by examining cell proliferation, using a commercial BrdU ELISA (Roche Molecular Biochemicals) performed according to the manufacturer's instructions. This assay quantifies DNA synthesis as a measure of cellular proliferation, as stimulation or inhibition of cell replication will require a concomitant change in the rate of DNA synthesis. Measurement of DNA synthesis is achieved by incubating proliferating cells in medium in which thymidine has been replaced with the pyrimidine analogue 5-bromo-2′-deoxyuridine (BrdU). Once incorporated into the cellular DNA, BrdU is measured by immunoassay. Briefly, HUVEC and fibroblasts were seeded as monocultures into 96 well plates at a density of 5×10^3 cells per well, to a final volume of 100 μl per well in endothelial cell culture medium. At the end of an initial culture period of 72 hours under standard conditions, while the cells were still proliferating, fibrin E analogue peptides were added to a range of final concentrations, as shown in the FIG. 8. Each treatment concentration of each peptide was administered to four replicate wells. Control cells received standard medium without test compounds. The cells were incubated for 24 hours with the test compounds, before 10 μl of stock BrdU solution (100 μM) was added to give a final concentration of 10 μM BrdU, and the cells were incubated for a further 2 hours. The test medium was then removed from the cells and replaced with 200 μl per well of Fixing/Denaturing solution, which was incubated on the cells for a further 30 minutes at room temperature. This was then replaced with 100 μl per well anti-BrdU-POD (mouse monoclonal clone BMG 6H8, Fab fragments conjugated to peroxidase) prepared as directed, which was left on the cells for a further 90 minutes at room temperature. The antibody conjugate was then removed from the wells by rinsing three times in 200 μl per well of washing buffer (PBS) before 100 μl well substrate solution (tetramethyl-benzidine) was added and incubated at room temperature until colour development was sufficient for photometric detection (approximately 15 minutes). Absorbance at 370 nm was measured on a multi-well plate ELISA plate reader (Dynatech), with a reference wavelength of 492 nm. Mean absorbance values from each group of four wells were calculated and expressed as a percentage±standard deviation of the mean value obtained from control wells incubated in the absence of fibrin E analogue peptide.
# [2] = test system: HUVEC and fibroblasts; assay: Neutral Red cell metabolism cytotoxicity assay; assay type: cell-based, human; conditions: for cytotoxicity / cell viability, Neutral Red assay: HUVEC and fibroblast monocultures, 72 hours
# Method: as §1
# A Neutral Red cell metabolism assay was used to determine the cytotoxicity to HUVEC and fibroblasts of the fibrin E analogue peptides. This assay works on the basis of colorimetric measurement of a red dye which, is reported to be taken up into the lysosomes of uninjured cells. Thus the stronger the colour signal obtained from a well of cells, the greater the percentage of cells remaining viable within that well. HUVEC cells were inoculated into wells of 96 wells at a density of 5×10^3 cells per well, in endothelial cell culture medium. Fibroblasts were similarly seeded 5×10^3 cells per well. The cells were incubated for 24 hours under standard conditions to permit adherence and growth, and then treated for 72 hours with fresh medium containing fibrin E peptides over the same range of concentrations used in the Angiosys™ angiogenesis assay. For each concentration of each of the six peptides, four replicate wells of each cell type were treated and then assayed. Following incubation with the test compounds, the medium was removed and replaced with 200 μl per well of fresh medium containing 3.57 mg neutral red per 100 ml. The cells were incubated with this neutral red solution for 3 hours, after which this solution was decanted and replaced with 100 μl 1% formaldehyde/1% CaCl2. This was rapidly decanted and replaced in turn with 200 μl 50% ethanol/1% acetic acid, which was incubated at room temperature for 30 minutes to extract the neutral red from the cells. The plates were then read in a 96 well plate-format spectrophotometer, measuring absorbance at 540 nm. Mean absorbance values from each group of four wells were calculated and expressed as a percentage±standard deviation of the mean value obtained from control wells incubated in the absence of fibrin E analogue peptide.
# [3] = test system: Chick fibroblasts; assay: Cell immunohistochemistry; assay type: binding; conditions: 8 mg per ml; 2 hours
# Method: Chick fibroblasts were cultured in a 25 cm^2 flask (Nunc) until confluent (approximately 3×10^6 cells). The cells were washed in PBS and then trypsinised and diluted to 3×10^5 cells per ml in Dulbecco modified medium with 10% foetal calf serum. […] of the cells suspension was plated into each well of a Nunc culture well slide. The cells were incubated overnight to allow adhesion and recovery from the passaging. Digoxygenin labelled fibrin fragment E was added to a final concentration of 8 mg per ml. Control wells contained unconjugated digoxygenin and PBS.
# The cells were rinsed after 2 hours with PBS then washed 3 times in TBS followed by one wash in distilled water. The cells were then incubated for 2 hours with sheep anti-digoxygenin alkaline phosphatase. The slides were then washed three times in TBS and developed with NBT and BCIP in bicarbonate buffer pH 9.8. The slides were air dried and then mounted for observation of membrane staining under the microscope.
# [4] = test system: Chick fibroblasts, Cos7, mouse 3T3 and human embryonic lung cells (HEL); assay: Cell binding assays (absorbance at 405 nm); conditions: 0-30 mg per well; 6 hours; each of the cell types
# Method: Chick fibroblasts, Cos7, mouse 3T3 and human embryonic lung cells (HEL) were cultured in a 25 cm^2 flask (Nunc) until confluent (approximately 3×10^6 cells). The cells were trypsinised and resuspended at concentration of 1.3×10^5 cells/ml. 200 μl of this cell suspension was added to each well of a 96 well culture plate (Nunc). The cells were incubated overnight at 37° C. to allow adherence and recovery. The cells were then divided into three sections, digoxygenin controls, PBS controls and digoxygenin labelled fragment E tests. Increasing concentrations of digoxygenin and digoxygenin labelled fibrin fragment E were applied from 0-30 mg per well. The plates were incubated for 6 hours at 37° C. under culture conditions.
# The plates were emptied of media and washed three times with PBS. The cells were then incubated for 2 hours with sheep antidigoxygenin alkaline phosphatase and developed with p-nitrophenyl phosphate in bicarbonate buffer pH 9.8. The plates were read on a Titertek Multiscan plate reader at 405 nm.
molecule,measurement,setting,value
"QLQEALLQQERPIRN [WTM35, QLQEALLQQERPIRN]","cytotoxicity / cell proliferation, BrdU assay",[1],not cytotoxic; also recorded: no toxicity
same,"cytotoxicity / cell viability, Neutral Red assay",[2],not cytotoxic; also recorded: no toxicity
"SLRPAPPPISGGGYR [WTM33, SLRPAPPPISGGGYR]","cytotoxicity / cell survival, BrdU assay","[1]; 3, 12, 100 μg/ml",no effect on survival of either cell type
same,"cytotoxicity / cell proliferation, BrdU assay",[1],not cytotoxic
same,"cytotoxicity / cell survival, Neutral Red assay","[2]; 3, 12, 100 μg/ml",no effect on survival of either cell type
same,"cytotoxicity / cell viability, Neutral Red assay",[2],not cytotoxic
"SSSSFQYMYLL [WTM37, SSSSFQYMYLL]","cytotoxicity / cell proliferation, BrdU assay",[1],no toxicity to either cell type
same,"cytotoxicity / cell viability, Neutral Red assay",[2],no toxicity to either cell type
"SVDELNNNVEAVSQT [WTM36, SVDELNNNVEAVSQT]","cytotoxicity / cell proliferation, BrdU assay",[1],not cytotoxic; also recorded: exhibited an effect on the cell proliferation
same,"cell proliferation, BrdU assay",[1]; higher concentrations,potential for reduction in cell proliferation
same,"cytotoxicity / cell viability, Neutral Red assay",[2],not cytotoxic; also recorded: no reduction in the viability of the cells
"fibrin fragment E: fibrin fragment E (55 kD), used digoxygenin labelled in binding experiments (protein) chain 1: GPRVVERHQSACKDSDWPFCSDEDWNYKCPSGCRMKGLIDEVNQDFTNRINKLKNSLFEYQK chain 2: GHRPLDKKREEAPSLRPAPPPISGGGYRARPAKAAATQKKVERKAPDAGGCLHADPDLGVLCPTGCQLQEALLQQERPIRNSVDELNNNVEAVSQTSSSSFQYMYLLK chain 3: YVATRDNCCILDERFGSYCPTTCGIADFLSTYQTKVDKDLQSLEDILHQVENKTSEVKQLIK",binding to cells (membrane staining),[3],shown to bind
same,binding to cells (absorbance at 405 nm compared to controls),[4],high absorbance
